The target of this assay is T1, cynomolgus BK1-receptor (Macaca fascicularis, UniProt Q3BCU0).
T1 construct: expressed in transfected cells; host or cells: CHO cells (homogenate)
T1 sequence (Q3BCU0 1-352): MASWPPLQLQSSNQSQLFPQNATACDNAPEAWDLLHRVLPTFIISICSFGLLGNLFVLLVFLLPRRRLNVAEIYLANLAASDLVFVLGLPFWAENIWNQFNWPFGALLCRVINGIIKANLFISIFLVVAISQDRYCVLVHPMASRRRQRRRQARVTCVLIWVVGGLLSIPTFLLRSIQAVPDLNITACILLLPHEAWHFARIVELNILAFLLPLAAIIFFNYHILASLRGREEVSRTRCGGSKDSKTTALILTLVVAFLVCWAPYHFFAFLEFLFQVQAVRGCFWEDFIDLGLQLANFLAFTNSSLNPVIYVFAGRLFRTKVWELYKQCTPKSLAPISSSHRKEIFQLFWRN
As to the kind of experiment: cynoBK1-receptor binding assay. To be noted: CHO cells expressing cynomolgus BK1-receptor, radioligand kallidine (DesArg10,Leu9); for inhibition at 10 µM: at 10 μgmol/L. In a few lines: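 Ki derived by non-linear fitting of concentration-binding curves. Test compound competed against 0.5 to 5.0 nM tritiated kallidine (DesArg10,Leu9) on cynomolgus BK1-CHO cell homogenate (50 to 250 μg protein/assay) for 60-180 minutes at ambient temperature, then filtered. 1.0 μM kallidine (DesArg10) set non-specific binding.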

Consider `Cc1ncc(C(=O)NC2(C(=O)NCc3ncc(Nc4ccc(F)cc4C(F)(F)F)cc3C)CC2)cn1` [(344)], for which affinity was put at a Ki of 0.0019 µM.

`Cc1ccc(C(=O)NC2(C(=O)NCc3ccc(Nc4ccc(Cl)cc4C(F)(F)F)cn3)CC2)cn1` [(312)]: the affinity, expressed as Ki, was 0.057 µM.

On to `O=C(NC1(C(=O)NCc2ncc(Nc3ccc(F)cc3C(F)(F)F)cc2F)CC1)c1cncnc1` [(151)], for which the affinity corresponds to a Ki of 0.0018 µM and the inhibition (as a rule, the relative decrease from the control value, in per cent) at 10 µM came to 107%.

Turning to `O=C(N[C@@]1(C(=O)NCc2ncc(Nc3ccc(F)cc3C(F)(F)F)cc2Cl)CCOC1)c1cncnc1` [(216)], the affinity corresponds to a Ki of 0.0078 µM.

For `O=C(NC1(C(=O)NCc2ccc(Nc3ccc(Cl)cc3C(F)(F)F)cn2)CC1)c1cncc(Cl)c1` [(352)], the Ki (as a rule, a dissociation constant, usually derived from enzyme kinetics or from competition with a known ligand) came out at 0.059 µM.

As to `CNc1ncc(C(=O)N[C@@]2(C(=O)NCc3ncc(Nc4ccc(F)cc4C(F)(F)F)cc3Cl)CCOC2)cn1` [(224)], the affinity corresponds to a Ki of 0.0063 µM.

`O=C(N[C@@]1(C(=O)NCc2ccc(Nc3cc(F)ccc3C(F)(F)F)cn2)CCOC1)c1cncnc1` [(48)]: the inhibition at 10 µM amounted to 71%.

On to `O=C(NC1(C(=O)NCc2ccc(Nc3cccc(Cl)c3Cl)cc2)CC1)c1cncnc1` [(1)], for which the inhibition at 10 µM was found to be 54%.

For the compound `O=C(NC1(C(=O)NCc2ccc(Nc3ccccc3C(F)(F)F)cc2)CC1)c1ccccc1` [(20)], the inhibition at 10 µM was determined as 81%.

Take `Cn1ccc(C(=O)NC2(C(=O)NCc3ccc(Nc4ccc(Cl)cc4C(F)(F)F)cn3)CC2)cc1=O` [(148)]: the inhibition at 10 µM was found to be 96%.

`Nc1cncc(C(=O)N[C@@]2(C(=O)NCc3ncc(Nc4ccc(F)cc4C(F)(F)F)cc3Cl)CCOC2)c1` [(219)] yielded a Ki of 0.0089 µM.

`Cc1cc(Nc2ccc(F)cc2C(F)(F)F)cnc1CNC(=O)[C@]1(NC(=O)c2cncc(N)c2)CCOC1` [(342)] gave a Ki of 0.05 µM.

With `O=C(NC1(C(=O)NCc2ccc(Nc3ccc(Br)cc3C(F)(F)F)cn2)CC1)c1cc(O)nc(O)n1` [(176)], the inhibition at 10 µM was 100%.

Consider `Cc1ncc(C(=O)N[C@@]2(C(=O)NCc3ccc(Nc4c(F)cccc4C(F)(F)F)cc3F)CCOC2)cn1` [(291)], for which the Ki is 0.04 µM.

As to `COC(=O)c1ccc(Nc2ccc(CNC(=O)C3(NC(=O)c4cncnc4)CC3)nc2)c(C(F)(F)F)c1` [(196)], the Ki was greater than 0.5 µM and the inhibition at 10 µM was found to be 82%.

Turning to `Nc1cc(C(=O)N[C@@]2(C(=O)NCc3ccc(Nc4ccccc4C(F)(F)F)cc3)CCOC2)ccn1` [(63)], the Ki is 0.118 µM and the inhibition at 10 µM was 108%.

Consider `N#Cc1cc(OC(F)(F)F)ccc1Nc1ccc(CNC(=O)C2(NC(=O)c3cncnc3)CC2)cc1` [(161)], for which the Ki is greater than 0.5 µM and the inhibition at 10 µM came to 69%.

The compound `COc1ccc(C(=O)NC2(C(=O)NCc3ccc(Nc4ccc(Br)cc4C(F)(F)F)cn3)CC2)cn1` [(235)] had a Ki of 0.489 µM.

`O=C(N[C@@]1(C(=O)NCc2ccc(Nc3ccc(Cl)cc3C(F)(F)F)cc2)CCOC1)c1cncs1` [(336)] displayed a Ki of 0.567 µM.

For `COc1ncc(C(=O)N[C@@]2(C(=O)NCc3ncc(Nc4ccc(F)cc4C(F)(F)F)cc3F)CCOC2)cn1` [(238)], the affinity, expressed as Ki, was 0.0066 µM.

For `Nc1ccc(C(=O)N[C@@]2(C(=O)NCc3ccc(Nc4ccccc4C(F)(F)F)cc3)CCOC2)cn1` [(57)], the Ki turned out to be 0.077 µM and the inhibition at 10 µM worked out at 111%.

As to `COc1ncc(C(=O)NC2(C(=O)NCc3ccc(Nc4ccc(Cl)cc4C(F)(F)F)cn3)CC2)cn1` [(146)], the affinity corresponds to a Ki of 0.0076 µM and the inhibition at 10 µM came to 107%.

As for `O=C(N[C@@]1(C(=O)NCc2ccc(Nc3ccc(Cl)cc3C(F)(F)F)cc2)CCOC1)c1cnc2[nH]ccc2c1` [(388)], the affinity, expressed as Ki, was 0.386 µM.

Take `CN(C)c1ncc(C(=O)NC2(C(=O)NCc3ccc(Nc4ccc(Br)cc4C(F)(F)F)cn3)CC2)cn1` [(175)]: the affinity, expressed as Ki, was 0.063 µM and the inhibition at 10 µM amounted to 96%.

The compound `CC(=O)Nc1ccc(C(=O)NC2(C(=O)NCc3ccc(Nc4ccc(F)cc4C(F)(F)F)cn3)CC2)cn1` [(251)] registered a Ki of 0.014 µM.

In the case of `O=C(NC1(C(=O)NCc2ccc(Nc3ccccc3)cc2)CC1)c1cncnc1` [(3)], the inhibition at 10 µM is 65%.
